In data set [1] the test system is E. coli K12 Δactivating enzyme. The data set can be described thus: MIC, broth microdilution, strains deleted in activating enzyme. In kind it is cell-based. As to conditions: anaerobic conditions. On the procedure: (§1) Cells were tested in a standard broth microdilution assay, inoculating 10^5 cells per well of a microtiter plate in LB broth. Overexpression and deletion strains were compared to the appropriate isogenic wild type. IPTG was added at 1 mM to growth medium. Experiments involving nfnB and nfsA strains were performed under anaerobic conditions.
On the technique in general: In broth dilution the organism is exposed to a series of concentrations in liquid medium.

Data set [2] deals with E. coli K12 overexpressing activating enzyme. The data set can be described thus: MIC, broth microdilution, strains overexpressing activating enzyme. In kind it is cell-based. As to conditions: for MIC: 1 mM IPTG; for susceptibility of strains overexpressing the corresponding activating enzymes: in words.
Text: Next, the hits that verify and have reduced activity compared to wild type or no activity against strains deleted in a known or putative enzyme are validated. The rationale is to test the hit against a strain overexpressing the putative activating enzyme. Strains overexpressing activating enzymes have considerably higher susceptibility to prodrugs. It is important to note that conventional antibiotics that inhibit specific targets have increased activity against strains with diminished expression of the target, and decreased activity if the target is overproduced (Schmid, M. B. (2001) New targets and strategies for identification of novel classes of antibiotics. In Antibiotic Development and Resistance. Hughes, D. and Andersson, D. I. (eds). New York: Taylor and Francis, pp. 197-208; Sun, D.e.a. (2001) In 41st Interscience Conference on Antimicrobial Agents and Chemotherapy Chicago: ASM, pp. 77). A prodrug hit has higher activity against a strain overexpressing an activating enzyme, and lower activity against a strain lacking/diminished in an activating enzyme. This behavior of a prodrug hit is the exact opposite from what one expects from a specific antibiotic, and will provide for an excellent preliminary validation of prodrugs. This validation is facilitated by the availability of the ASKA library of E. coli strains overexpressing all known ORFs. The University of Nagoya freely distributes this resource (Saka et al. (2005) DNA Res. 12:63-68). The library contains 4,382 individual E. coli K12 W3110 clones, each carrying a single ORF cloned in an expression vector pCA24N under a pT5/lac promoter. The N-termini carry a his-tag linked to the ORF by a 7 amino acid spacer. The vector carries a CAM resistance marker and a lacl^q gene for a tight control of IPTG-inducible expression.
(§2) The ASKA strains of interest are validated for functional expression of the enzyme. If the protein is not expressed from a given expression vector the ORF will be recloned. A strain overexpressing the activating enzyme from the ASKA library is then tested with the hit compound. If the hit has greater activity against this overexpressing strain as compared to the wild type, this indicates a prodrug. The test is performed in a standard broth microdilution assay for MIC determination. Hits with the lowest wild type MIC are then focused on.
as §1

Data set [3] relates to E. coli K12 ΔtolC overexpressing activating enzyme. The data set can be described thus: MIC, broth microdilution, tolC deletion strains (MDR efflux test). The data set is classed as cell-based.
Text: Prodrugs are activated by activating enzymes into reactive molecules that bind to their targets, creating an irreversible sink. This may lead to insensitivity of the overall process to MDR efflux. In order to test this possibility, an E. coli K12 with a deletion in tolC coding for the outer membrane porin that is a component of the transenvelope MDRs was utilized (Li, X. Z et al. (2004) Drugs 64:159-204). This strain is highly sensitive to antibiotics (Tegos et al. (2002) Antimicrob. Agents Chemother. 46:3133-3141). […] The substrate specificity of AcrAB is remarkably broad, and includes essentially all small molecular weight amphipathic compounds. The AcrAB substrates include anions (SDS, fatty acids, bile acids), neutral compounds (macrolides, chloramphenicol, tetracyclines) and cations or compounds that can form cations (acridine, quaternary compound antiseptics, fluoroquinolones). AcrAB can extrude the best natural broad spectrum antibiotics that evolved for good penetration —chloramphenicol and tetracycline; and extrude the best synthetic broad-spectrums, the fluoroquinolones. Indeed, amphipathic antimicrobials that are not an AcrAB substrate are not known.
as §1

The conditions of data set [4]: Schulz et al. (1997); cited from earlier work.
Another data set concerns P. aeruginosa. The data set can be described thus: Killing of logarithmic, stationary and biofilm cultures by bactericidal antimicrobials (colony count). The data set is classed as cell-based. Conditions: in words. On the procedure:
Persister cells in planktonic and biofilm populations are characterized for their antibiotic sensitivity in this example. Several bactericidal antimicrobials were chosen to test the resistance of P. aeruginosa to killing—ofloxacin, a fluoroquinolone; tobramycin, an aminoglycoside; carbenicillin, a β-lactam; and peracetic acid, a disinfectant oxidant (Spoering et al. (2001) J. Bacteriol. 183:6746-6751). Biofilms were grown essentially by the method of Ceri (Ceri et al. (1999) J. Clin. Microbiol. 37:1771-1776) and as described in Brooun et al. (2000) Antimicrob. Agents Chemother. 44:640-646. The device used for biofilm formation is a platform carrying 96 polystyrene pegs that fit in a microtiter plate. Preformed biofilms were incubated in the presence of an antimicrobial agent, and survival was measured after disrupting the biofilms by colony count.
Carbenicillin is a bactericidal antibiotic that, similarly to most β-lactams, only kills rapidly growing cells (Tuomanen et al. (1986) Scand. J. Gastroenterol. Suppl:10-14). Logarithmic state, stationary and biofilm cultures were challenged with carbenicillin.
Unlike carbenicillin, ofloxacin can kill non-growing cells (Brooun et al. (2000) Antimicrob. Agents Chemother. 44:640-646). […] After a 6 hours incubation time with the antibiotic, viability was determined by colony count. […]

A further data set relates to E. coli K12 wt. As to the kind of experiment: MIC, standard broth microdilution assay, wild type. In kind it is cell-based. Conditions: in words; all strains tested. On the procedure: as §2, §1
The mark [5] stands for this setting: E. coli K12 nfnB+ (overexpressing), anaerobic conditions.
The mark [6] stands for this setting: E. coli K12 nfsA+ (overexpressing), anaerobic conditions.
[7] abbreviates: E. coli K12 ΔtolC nfnB+ (overexpressing), anaerobic conditions.
[8] abbreviates: E. coli K12 ΔtolC nfsA+ (overexpressing), anaerobic conditions.

The term MIC denotes the lowest concentration that inhibits growth of the organism.

Converted amounts (≈) assume the structure as drawn.

As to `NC(=O)c1cc([N+](=O)[O-])cc([N+](=O)[O-])c1` [3,5-Dinitrobenzamide], the MIC in data set [1] (E. coli K12 nfnB− (deleted)) was above 500 µg/mL; in data set [1] (E. coli K12 nfsA− (deleted)), above 500 µg/mL; in data set [2] (setting [5]), 15.6 µg/mL (≈ 73.9 µM); in data set [2] (setting [6]) it was 7.8 µg/mL (≈ 36.9 µM); in data set [3] (setting [7]), 15.6 µg/mL (≈ 73.9 µM); in data set [3] (setting [8]), 7.8 µg/mL (≈ 36.9 µM). In addition, the “susceptibility of strains overexpressing the corresponding activating enzymes” value in data set [2] is reported as “significantly increased susceptibilities”.
As to `NC[C@H]1O[C@H](O[C@H]2[C@H](O)[C@@H](O[C@H]3O[C@H](CO)[C@@H](O)[C@H](N)[C@H]3O)[C@H](N)C[C@@H]2N)[C@H](N)C[C@@H]1O` [Tobramycin, tobramycin], the clinically achievable concentration in data set [4] was 10 µg/mL. Also, the “killing of logarithmic cells” value with P. aeruginosa (logarithmic cells) is recorded as “no logarithmic persisters were detected”.
For `Nc1nc(O)ncc1F` [5-fluorocytosine, 5-Fluorocytosine], the “activity against any strains tested” value in the data set on E. coli K12 wt is listed as “little activity”.
`CC[C@H]1OC(=O)[C@H](C)[C@@H](O[C@H]2C[C@@](C)(OC)[C@@H](O)[C@H](C)O2)[C@H](C)[C@@H](O[C@@H]2O[C@H](C)C[C@H](N(C)C)[C@H]2O)[C@](C)(O)C[C@@H](C)C(=O)[C@H](C)[C@@H](O)[C@]1(C)O` [Erythromycin]: the MIC came to 200 µg/mL (≈ 273 µM) in data set [2] (E. coli K12 codA+ (overexpressing)); 200 µg/mL (≈ 273 µM) in data set [2] (E. coli K12 deoD+ (overexpressing)); 200 µg/mL (≈ 273 µM) in data set [2] (setting [6]); 1.56 µg/mL (≈ 2.13 µM) in data set [3] (E. coli K12 ΔtolC codA+ (overexpressing)); 1.56 µg/mL (≈ 2.13 µM) in data set [3] (E. coli K12 ΔtolC deoD+ (overexpressing)); 1.56 µg/mL (≈ 2.13 µM) in data set [3] (setting [7]). In addition, the MIC in data set [3] (setting [8]) was found to be 1.56 µg/mL (≈ 2.13 µM).
Regarding `CC(=O)OO` [Peracetic acid, peracetic acid], the “killing of logarithmic, stationary and biofilm cultures” value with P. aeruginosa (all three cultures) was “all cultures were sterilized”.
Consider `NC(=O)c1cc(N2CC2)c([N+](=O)[O-])cc1[N+](=O)[O-]` [Dinitroaziridinylbenzamide (CB1954), Dinitroaziridinylbenzamide], for which the MIC amounted to 3.3 µg/mL (≈ 13.1 µM) in data set [2] (setting [5]), 6.3 µg/mL (≈ 25 µM) in data set [2] (setting [6]), 3.3 µg/mL (≈ 13.1 µM) in data set [3] (setting [7]) and 6.3 µg/mL (≈ 25 µM) in data set [3] (setting [8]). Besides, in data set [2], the “susceptibility of strains overexpressing the corresponding activating enzymes” value is listed as “significantly increased susceptibilities”.
Regarding `CC1COc2c(N3CCN(C)CC3)c(F)cc3c(=O)c(C(=O)O)cn1c23` (stereo not drawn) [ofloxacin], the clinically achievable concentration in data set [4] was 5 µg/mL.
